The target in assay [1] is T1, GDNF family receptor alpha-1 (Homo sapiens, UniProt P56159).
T1 sequence (P56159 whole entry): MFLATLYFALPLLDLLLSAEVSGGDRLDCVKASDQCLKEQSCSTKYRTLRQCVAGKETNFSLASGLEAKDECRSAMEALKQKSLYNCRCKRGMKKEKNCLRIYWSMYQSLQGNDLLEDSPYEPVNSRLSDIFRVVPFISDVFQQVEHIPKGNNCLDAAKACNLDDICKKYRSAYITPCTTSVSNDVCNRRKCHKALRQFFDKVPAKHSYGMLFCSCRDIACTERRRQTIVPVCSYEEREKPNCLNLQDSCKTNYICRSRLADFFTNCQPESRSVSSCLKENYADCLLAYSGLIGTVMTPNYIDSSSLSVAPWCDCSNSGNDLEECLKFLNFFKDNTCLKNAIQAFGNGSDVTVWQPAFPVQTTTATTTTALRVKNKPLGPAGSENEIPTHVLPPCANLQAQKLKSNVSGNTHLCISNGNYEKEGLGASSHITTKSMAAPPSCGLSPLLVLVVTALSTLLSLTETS
Description: Inhibition of GFRalpha1 (unknown origin).

Assay [2] addresses T2, GDNF family receptor alpha-1 (Homo sapiens) (UniProt P56159).
T2 sequence (whole entry): T1 sequence (P56159 whole entry)
Description: Inhibition of GFRalpha1 (unknown origin) assessed as maximal efficacy relative to control.

The target of assay [3] is T3, GDNF family receptor alpha-2 (Homo sapiens, UniProt O00451).
T3 sequence (O00451 whole entry): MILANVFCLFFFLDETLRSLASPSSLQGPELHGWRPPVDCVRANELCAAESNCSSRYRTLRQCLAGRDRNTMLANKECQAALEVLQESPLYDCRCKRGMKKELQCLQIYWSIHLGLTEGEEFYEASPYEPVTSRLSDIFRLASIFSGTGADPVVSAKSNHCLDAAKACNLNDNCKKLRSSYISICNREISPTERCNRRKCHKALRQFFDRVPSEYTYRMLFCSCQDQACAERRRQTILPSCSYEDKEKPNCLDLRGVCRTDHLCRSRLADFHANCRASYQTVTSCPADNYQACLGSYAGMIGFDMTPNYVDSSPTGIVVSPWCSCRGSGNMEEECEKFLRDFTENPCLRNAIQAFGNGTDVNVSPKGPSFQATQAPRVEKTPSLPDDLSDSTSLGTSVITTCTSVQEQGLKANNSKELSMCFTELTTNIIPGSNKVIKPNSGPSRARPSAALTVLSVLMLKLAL
Description: Inhibition of GFRalpha2 (unknown origin).

Assay [4] has as its target T4, GDNF family receptor alpha-2 (Homo sapiens) (UniProt O00451).
T4 sequence (whole entry): T3 sequence (O00451 whole entry)
Description: Inhibition of GFRalpha2 (unknown origin) assessed as maximal efficacy relative to control.

Assay [5] addresses T5, GDNF family receptor alpha-3 (Homo sapiens, UniProt O60609).
T5 sequence (O60609 whole entry): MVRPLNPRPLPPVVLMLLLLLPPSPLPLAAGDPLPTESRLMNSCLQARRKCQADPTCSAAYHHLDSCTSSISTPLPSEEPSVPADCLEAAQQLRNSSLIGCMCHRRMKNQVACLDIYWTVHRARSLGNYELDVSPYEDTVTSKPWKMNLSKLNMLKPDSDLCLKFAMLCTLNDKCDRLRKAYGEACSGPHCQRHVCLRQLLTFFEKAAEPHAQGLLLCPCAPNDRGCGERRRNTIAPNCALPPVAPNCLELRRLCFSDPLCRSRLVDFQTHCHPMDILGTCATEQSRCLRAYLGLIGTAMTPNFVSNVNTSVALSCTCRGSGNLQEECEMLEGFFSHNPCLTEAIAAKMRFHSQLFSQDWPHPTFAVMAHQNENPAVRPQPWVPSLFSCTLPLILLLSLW
Description: Inhibition of GFRalpha3 (unknown origin).

Assay [6] has as its target T6, GDNF family receptor alpha-3 (Homo sapiens) (UniProt O60609).
T6 sequence (whole entry): T5 sequence (O60609 whole entry)
Description: Inhibition of GFRalpha3 (unknown origin) assessed as maximal efficacy relative to control.

The target of assay [7] is T7, Proto-oncogene tyrosine-protein kinase receptor Ret (Homo sapiens, UniProt P07949). Description: Inhibition of RET (unknown origin).
T7 sequence (P07949 whole entry): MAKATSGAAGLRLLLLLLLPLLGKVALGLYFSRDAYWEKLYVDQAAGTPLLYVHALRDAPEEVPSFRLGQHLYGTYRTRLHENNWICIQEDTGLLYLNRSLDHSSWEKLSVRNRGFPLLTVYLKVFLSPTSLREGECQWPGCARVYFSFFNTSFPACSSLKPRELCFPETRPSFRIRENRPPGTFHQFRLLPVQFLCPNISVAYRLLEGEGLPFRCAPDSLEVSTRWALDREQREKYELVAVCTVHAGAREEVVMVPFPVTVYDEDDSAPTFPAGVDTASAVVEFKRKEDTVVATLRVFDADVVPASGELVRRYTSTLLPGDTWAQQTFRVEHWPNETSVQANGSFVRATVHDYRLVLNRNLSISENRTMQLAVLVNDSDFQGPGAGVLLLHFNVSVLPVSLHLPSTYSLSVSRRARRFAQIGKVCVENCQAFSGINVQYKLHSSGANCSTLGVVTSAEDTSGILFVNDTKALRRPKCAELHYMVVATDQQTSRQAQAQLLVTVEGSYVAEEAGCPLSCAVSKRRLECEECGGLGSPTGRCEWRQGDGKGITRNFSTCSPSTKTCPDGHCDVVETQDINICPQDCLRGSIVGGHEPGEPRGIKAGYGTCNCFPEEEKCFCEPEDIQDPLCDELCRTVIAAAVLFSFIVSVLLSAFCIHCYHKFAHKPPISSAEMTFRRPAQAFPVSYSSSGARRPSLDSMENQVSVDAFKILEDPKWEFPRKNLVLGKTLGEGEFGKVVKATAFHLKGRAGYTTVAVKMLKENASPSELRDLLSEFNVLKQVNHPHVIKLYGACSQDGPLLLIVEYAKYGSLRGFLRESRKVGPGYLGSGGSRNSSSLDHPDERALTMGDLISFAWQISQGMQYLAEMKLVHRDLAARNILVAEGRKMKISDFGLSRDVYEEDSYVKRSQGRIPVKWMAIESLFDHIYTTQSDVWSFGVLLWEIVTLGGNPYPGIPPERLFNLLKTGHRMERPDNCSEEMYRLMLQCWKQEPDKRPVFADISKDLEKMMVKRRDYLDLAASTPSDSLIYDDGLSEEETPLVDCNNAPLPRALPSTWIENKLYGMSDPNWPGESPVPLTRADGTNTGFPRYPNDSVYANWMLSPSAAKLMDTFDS
Assay [8] concerns the target T7, Proto-oncogene tyrosine-protein kinase receptor Ret. Description: Inhibition of RET (unknown origin) assessed as maximal efficacy relative to control.

The record followed here is ChEMBL document CHEMBL5584267, “Discovery of the first selective, small-molecule GFRα2/3 inhibitors through DNA-encoded library technology” (Bioorg Med Chem Lett, 2024).

SMILES strings stand for the structures. pIC50: −log10 of the molar value.

Turning to `O=C(O)Cc1cccc(O[C@H]2CCc3cc(-c4cnc(Nc5ccccc5)nc4)ccc32)c1`, the pIC50 (commonly the IC50 on a negative log10 scale, so that one unit is a factor of ten) was under 4.00 in assay [1], under 4.00 in assay [3], 5.55 in assay [5] and 5.64 in assay [7]. Also, the maximal effect (Emax) (usually the size of the effect at its maximum, as opposed to the concentration needed) in assay [2] stood at 0%; in assay [4], 0%; in assay [6], 59%; in assay [8] it was 93%.

On to `CNC(=O)[C@H](NC(=O)Cc1cccc(O[C@H]2CCc3cc(-c4cnc(Nc5cncnc5)nc4)ccc32)c1)C1CCCCC1`, for which the pIC50 in assay [1], in assay [3], in assay [5] and in assay [7] was under 4.00 throughout. In addition, the maximal effect (Emax) in assay [2], in assay [4], in assay [6] and in assay [8] was 0% each time.

For `CO[C@H]1CCc2cc(-c3cnc(Nc4ccccc4)nc3)ccc21`, the pIC50 in assay [1], in assay [3], in assay [5] and in assay [7] was under 4.00 each time. In addition, the maximum response (Emax) in assay [2], in assay [4], in assay [6] and in assay [8] was 0% each time.

On to `CNC(=O)[C@H](NC(=O)Cc1cccc(O[C@H]2CCc3ccccc32)c1)C1CCCCC1`, for which the pIC50 was under 4.00 in assay [1], 5.00 in assay [3], 5.04 in assay [5] and under 4.00 in assay [7]. In addition, the maximum response (Emax) in assay [2] amounted to 0%; in assay [4] it was 66%; in assay [6], 66%; in assay [8], 0%.

As to `CNC(=O)[C@H](NC(=O)Cc1cccc(O[C@H]2CCc3cc(-c4cncc(Oc5ccccc5)c4)ccc32)c1)C1CCCCC1`, the negative-log IC50 (pIC50) is under 4.00 in assay [1], 4.74 in assay [3], 4.59 in assay [5] and under 4.00 in assay [7]. Moreover, the Emax in assay [2] stood at 0%; in assay [4], 100%; in assay [6], 100%; in assay [8], 0%.

Turning to `CNC(=O)[C@H](Cc1c[nH]cn1)NC(=O)Cc1cccc(O[C@H]2CCc3cc(-c4cnc(Nc5ccccc5)nc4)ccc32)c1`, the pIC50 in assay [1] was under 4.00; in assay [3] it was 5.43; in assay [5], 5.27; in assay [7] it was 5.96. Also, the Emax is 0% in assay [2], 46% in assay [4], 70% in assay [6] and 65% in assay [8].

Take `NC(=O)[C@H](NC(=O)Cc1cccc(O[C@H]2CCc3cc(-c4ncc(Nc5ccccc5)cn4)ccc32)c1)C1CCCCC1`: the pIC50 in assay [1] is 6.00; in assay [3], 5.60; in assay [5], 5.96; in assay [7], 6.10. For the same compound, the maximal effect (Emax) in assay [2] worked out at 79%; in assay [4] it was 69%; in assay [6] it was 100%; in assay [8], 68%.

With `NC(=O)Cc1cccc(O[C@H]2CCc3cc(-c4cnc(Nc5ccccc5)nc4)ccc32)c1`, the negative-log IC50 (pIC50) in assay [1], in assay [3], in assay [5] and in assay [7] was under 4.00 throughout. The maximal effect (Emax) in assay [2], in assay [4], in assay [6] and in assay [8] was 0% each time.

As for `CNC(=O)[C@@H](Cc1c[nH]cn1)NC(=O)Cc1cccc(O[C@H]2CCc3cc(-c4cnc(Nc5ccccc5)nc4)ccc32)c1`, the negative logarithm of the IC50 (pIC50) in assay [1] was 4.52; in assay [3], under 4.00; in assay [5], 4.87; in assay [7], under 4.00. For the same compound, the Emax was 97% in assay [2], 0% in assay [4], 100% in assay [6] and 0% in assay [8].

For `CNC(=O)[C@H](NC(=O)Cc1cccc(O[C@@H]2Cc3ccc(-c4cnc(Nc5ccccc5)nc4)cc3C2)c1)C1CCCCC1` (racemic), the pIC50 was 6.60 in assay [1], 7.00 in assay [3], 6.70 in assay [5] and under 4.00 in assay [7]. Besides, the Emax in assay [2] worked out at 86%; in assay [4], 100%; in assay [6], 100%; in assay [8], 0%.

Consider `CNC(=O)[C@H](NC(=O)Cc1cccc(O[C@H]2CCc3cc(-c4cncnc4)ccc32)c1)C1CCCCC1`, for which the pIC50 in assay [1] was under 4.00; in assay [3], under 4.00; in assay [5], under 4.00; in assay [7] it was 6.05. Moreover, the maximum response (Emax) amounted to 0% in assay [2], 0% in assay [4], 0% in assay [6] and 100% in assay [8].

For the compound `O[C@H]1CCc2cc(-c3cnc(Nc4ccccc4)nc3)ccc21`, the pIC50 was under 4.00 in assay [1], under 4.00 in assay [3], 5.06 in assay [5] and 4.80 in assay [7]. Further, the maximal effect (Emax) in assay [2] was 0%; in assay [4], 0%; in assay [6], 71%; in assay [8], 92%.

`COC(=O)[C@H](Cc1cnc[nH]1)NC(=O)Cc1cccc(O[C@H]2CCc3cc(-c4cncc(Oc5ccccc5)c4)ccc32)c1`: the negative-log IC50 (pIC50) in assay [1] was under 4.00; in assay [3] it was under 4.00; in assay [5] it was 5.13; in assay [7], under 4.00. Besides, the Emax in assay [2] was determined as 0%; in assay [4] it was 0%; in assay [6] it was 100%; in assay [8], 0%.

For `CNC(=O)[C@H](NC(=O)Cc1cccc(O[C@H]2CCc3cc(-c4cnc(Nc5ccccc5)nc4)ccc32)c1)C1CCCCC1`, the pIC50 in assay [1] is 5.68; in assay [3] it was 6.00; in assay [5], 6.15; in assay [7] it was under 4.00. In addition, the Emax was 52% in assay [2], 56% in assay [4], 71% in assay [6] and 0% in assay [8].

As to `CNC(=O)[C@H](NC(=O)Cc1cccc(Oc2cnc(Nc3ccccc3)nc2)c1)C1CCCCC1`, the pIC50 in assay [1], in assay [3], in assay [5] and in assay [7] was under 4.00 each time. Moreover, the maximal effect (Emax) in assay [2], in assay [4], in assay [6] and in assay [8] was 0% in each case.

With `CNC(=O)Cc1cccc(O[C@H]2CCc3cc(-c4cnc(Nc5ccccc5)nc4)ccc32)c1`, the negative logarithm of the IC50 (pIC50) in assay [1], in assay [3], in assay [5] and in assay [7] was under 4.00 each time. Besides, the Emax in assay [2], in assay [4], in assay [6] and in assay [8] was 0% in each case.
